Measurements from patent US8399429B2, “Uracyl cyclopropyl nucleotides” (Janssen Products, LP, priority 2008, dated 2013).

Key:
[1] = tested on: wild type human immunodeficiency virus (HIV) strain IIIB; assay: HIV assay in MT4 LTR-EGFP cells; type: cell-based, HIV-1; conditions: three days after infection
Experimental: (§1) Compounds of the invention were tested for their potency against wild type human immunodeficiency virus (HIV). Antiviral activity was evaluated using a cellular assay performed according to the following procedure. The human T-cell line MT4 was engineered with Green Fluorescent Protein (GFP) and a HIV-specific promoter, HIV-1 long terminal repeat (LTR). This cell line, designated MT4 LTR-EGFP, can be used for the in vitro evaluation of anti-HIV activity of investigational compounds. In HIV-1 infected cells, the Tat protein is produced, which upregulates the LTR promotor and eventually leads to stimulation of the GFP reporter production, allowing to measure ongoing HIV-infection fluorometrically. Effective concentration values such as 50% effective concentration (EC50) can be determined and are usually expressed in μM. An EC50 value is defined as the concentration of test compound that reduces the fluorescence of HIV-infected cells by 50%. Monitoring of HIV-1 infection was done using a scanning microscope. Image analysis allows very sensitive detection of viral infection. Measurements were done before cell necrosis, which usually takes place about five days after infection, in particular measurements were performed three days after infection. The column IIIB in the table list the EC50 values against the wild type strain IIIB.

MT-4 cells = assay: Cellular toxicity in the HIV cell-line (MT-4); type: cell-based, human
Experimental: as §1
(§2) Also the HIV activity is given (EC50 HIV (μM)) and the cellular toxicity in the HIV cell-line (CC50 (μM) (MT-4)).

Huh7-CMV-Luc cells = assay: Cellular toxicity in Huh7-CMV-Luc replicon assay; type: cell-based; conditions: three days incubation, Luc activity, read-out: CC50 (μM) (Huh-7)
Experimental: (§3) Cellular toxicity was determined in the Huh7-CMV-Luc replicon assay. Replicon cells (2500 cells/well), stably transformed with a luciferase reporter gene under control of the cytomegalovirus (CMV) constitutive promotor, were cultured in the presence or absence of test compound concentrations. After three days of incubation at 37° C. in a humidified 5% CO2 atmosphere, cell proliferation was quantified by measuring the Luc activity, and expressed as CC50 values (cytotoxicity, 50% inhibitory concentration of cell growth). Tests were performed in 384-well plates.

[2] = tested on: HCV replicon (Huh-7 luc/neo, NS3-NS5B of HCV type 1b); assay: HCV replicon assay (Huh-Luc, luciferase readout); type: cell-based; conditions: Huh-Luc cells, HCV type 1b replicon, three days incubation, luciferase activity
Text: The compounds of formula I were examined for activity in the inhibition of HCV RNA replication in a cellular assay aimed at identifying compounds that inhibit a HCV functional cellular replicating cell line, also known as HCV replicons. The cellular assay was based on a bicistronic expression construct, as described by Lohmann et al. (1999), Science vol. 285 pp. 110-113 with modifications described by Krieger et al. (2001), Journal of Virology 75: 4614-4624, in a multi-target screening strategy.
The assay utilized the stably transfected cell line Huh-7 luc/neo (hereafter referred to as Huh-Luc). This cell line harbors an RNA encoding a bicistronic expression construct comprising the wild type NS3-NS5B regions of HCV type 1b translated from an Internal Ribosome Entry Site (IRES) from encephalomyocarditis virus (EMCV), preceded by a reporter portion (FfL-luciferase), and a selectable marker portion (neoR, neomycine phosphotransferase). The construct is bordered by 5′ and 3′ NTRs (non-translated regions) from HCV type 1b. Continued culture of the replicon cells in the presence of G418 (neo^R) is dependent on the replication of the HCV RNA. The stably transfected replicon cells that express HCV RNA, which replicates autonomously and to high levels, encoding inter alia luciferase, were used for screening the antiviral compounds.
The replicon cells were plated in 384 well plates in the presence of the test and control compounds which were added in various concentrations. Following an incubation of three days, HCV replication was measured by assaying luciferase activity (using standard luciferase assay substrates and reagents and a Perkin Elmer ViewLux™ ultraHTS microplate imager). Replicon cells in the control cultures have high luciferase expression in the absence of any inhibitor. The inhibitory activity of the compound on luciferase activity was monitored on the Huh-Luc cells, enabling a dose-response curve for each test compound. EC50 values were then calculated, which value represents the amount of the compound required to decrease the level of detected luciferase activity by 50%, or more specifically, the ability of the genetically linked HCV replicon RNA to replicate.

[3] = Cellular toxicity in the HIV cell-line (MT-4); type: cell-based, human; conditions: human
Experimental: as §1, §2

[4] = Cellular toxicity in Huh7-CMV-Luc replicon assay; type: cell-based; conditions: human, Huh7-CMV-Luc cells, three days incubation, Luc activity; read-out: CC50 (μM) (Huh-7)
Experimental: as §3

[5] = Human immunodeficiency virus 1, IIIB, 72 h

Compound: C[C@H](NP(=O)(OC[C@H]1O[C@@H](n2ccc(=O)[nH]c2=O)C2(CC2)[C@@H]1O)Oc1ccc(Cl)cc1)C(=O)OCc1ccccc1 (single isomer, unassigned) [Compound 7b]
- EC50 [1]: > 98 µM
- CC50 (MT-4 cells): > 90 µM
- CC50 (Huh7-CMV-Luc cells): > 98 µM
- EC50 [2]: 3.4 µM

Compound: CCOC(=O)C1(NP(=O)(OC[C@H]2O[C@@H](n3ccc(=O)[nH]c3=O)C3(CC3)[C@@H]2O)Oc2ccc(Cl)cc2)CCC1 (stereo partly drawn) [Compound 26]
- EC50 [1, 5]: > 98 µM
- CC50 [3]: > 98 µM
- CC50 at 3 days [4]: > 98 µM
- EC50 ([2]; Hepatitis C virus, Huh-7, 72 h): 73.7 µM

Compound: COC(=O)C(C)(C)NP(=O)(OC[C@H]1O[C@@H](n2ccc(=O)[nH]c2=O)C2(CC2)[C@@H]1O)Oc1ccccc1 (stereo partly drawn) [Compound 27]
- EC50 [1, 5]: > 98 µM
- CC50 [3]: > 98 µM
- CC50 at 3 days [4]: > 98 µM
- EC50 ([2]; Hepatitis C virus, Huh-7, 72 h): 91.4 µM

Compound: CC(C)OC(=O)C(C)(C)NP(=O)(OC[C@H]1O[C@@H](n2ccc(=O)[nH]c2=O)C2(CC2)[C@@H]1O)Oc1ccccc1 (stereo partly drawn) [Compound 28]
- EC50 [1, 5]: > 98 µM
- CC50 [3]: > 98 µM
- CC50 at 3 days [4]: > 98 µM
- EC50 ([2]; Hepatitis C virus, Huh-7, 72 h): > 98 µM

Compound: CCOC(=O)C1(NP(=O)(OC[C@H]2O[C@@H](n3ccc(=O)[nH]c3=O)C3(CC3)[C@@H]2O)Oc2ccccc2)CC1 (stereo partly drawn) [Compound 29]
- EC50 [1, 5]: > 98 µM
- CC50 [3]: > 98 µM
- CC50 at 3 days [4]: > 98 µM
- EC50 ([2]; Hepatitis C virus, Huh-7, 72 h): > 98 µM

Compound: C[C@H](NP(=O)(OC[C@H]1O[C@@H](n2ccc(=O)[nH]c2=O)C2(CC2)[C@@H]1O)Oc1ccccc1)C(=O)OC(C)(C)C (stereo partly drawn) [Compound 30]
- EC50 [1, 5]: > 98 µM
- CC50 [3]: > 98 µM
- CC50 at 3 days [4]: > 98 µM
- EC50 ([2]; Hepatitis C virus, Huh-7, 72 h): > 98 µM

Compound: CC[C@H](NP(=O)(OC[C@H]1O[C@@H](n2ccc(=O)[nH]c2=O)C2(CC2)[C@@H]1O)Oc1ccccc1)C(=O)OC(C)C (stereo partly drawn) [Compound 31]
- EC50 [1, 5]: > 95 µM
- CC50 [3]: > 98 µM
- CC50 at 3 days [4]: > 98 µM
- EC50 ([2]; Hepatitis C virus, Huh-7, 72 h): > 98 µM

Compound: CCOC(=O)C1(NP(=O)(OC[C@H]2O[C@@H](n3ccc(=O)[nH]c3=O)C3(CC3)[C@@H]2O)Oc2ccccc2)CCC1 (stereo partly drawn) [Compound 32]
- EC50 [1, 5]: > 98 µM
- CC50 [3]: > 98 µM
- CC50 at 3 days [4]: > 98 µM
- EC50 ([2]; Hepatitis C virus, Huh-7, 72 h): > 98 µM

Compound: CCOC(=O)C1(NP(=O)(OC[C@H]2O[C@@H](n3ccc(=O)[nH]c3=O)C3(CC3)[C@@H]2O)Oc2ccc(Cl)cc2)CC1 (stereo partly drawn) [Compound 33]
- EC50 [1, 5]: > 98 µM
- CC50 [3]: > 98 µM
- CC50 at 3 days [4]: > 98 µM
- EC50 ([2]; Hepatitis C virus, Huh-7, 72 h): > 98 µM
